Data taken from ChEMBL document CHEMBL5360622, “Leucettinibs, a Class of DYRK/CLK Kinase Inhibitors Inspired by the Marine Sponge Natural Product Leucettamine B” (J Med Chem, 2023).

Tests used:
[1] = target: Casein kinase I isoform epsilon (Homo sapiens, UniProt P49674)
[2] = target: Cyclin-dependent kinase 5/CDK5 activator 1 (Homo sapiens, UniProt Q00535); type: cell-based, Sf9
[3] = target: Dual specificity protein kinase CLK2 (Homo sapiens, UniProt P49760)
[4] = target: Dual specificity protein kinase CLK3 (Homo sapiens, UniProt P49761); type: cell-based, Sf9
[5] = target: T1, Dual specificity tyrosine-phosphorylation-regulated kinase 2 (Homo sapiens, UniProt Q92630)
T1 sequence (Q92630 whole entry): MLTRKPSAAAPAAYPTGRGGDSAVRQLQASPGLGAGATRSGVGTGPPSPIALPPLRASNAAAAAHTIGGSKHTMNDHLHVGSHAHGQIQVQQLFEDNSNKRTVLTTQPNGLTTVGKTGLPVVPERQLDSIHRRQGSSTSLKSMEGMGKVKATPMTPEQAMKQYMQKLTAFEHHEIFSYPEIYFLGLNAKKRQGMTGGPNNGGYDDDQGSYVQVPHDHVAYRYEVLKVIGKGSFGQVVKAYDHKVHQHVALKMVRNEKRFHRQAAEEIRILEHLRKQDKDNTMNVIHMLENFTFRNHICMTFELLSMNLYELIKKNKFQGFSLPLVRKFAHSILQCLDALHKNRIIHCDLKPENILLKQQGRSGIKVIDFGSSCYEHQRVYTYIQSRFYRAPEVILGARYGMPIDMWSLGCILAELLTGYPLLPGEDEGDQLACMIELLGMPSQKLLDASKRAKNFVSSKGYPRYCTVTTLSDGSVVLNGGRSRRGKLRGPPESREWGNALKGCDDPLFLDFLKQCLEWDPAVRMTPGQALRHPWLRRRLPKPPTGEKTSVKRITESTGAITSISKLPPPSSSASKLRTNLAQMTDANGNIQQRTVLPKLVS

[6] = target: T2, Dual specificity tyrosine-phosphorylation-regulated kinase 3 (Homo sapiens, UniProt O43781)
T2 sequence (O43781 whole entry): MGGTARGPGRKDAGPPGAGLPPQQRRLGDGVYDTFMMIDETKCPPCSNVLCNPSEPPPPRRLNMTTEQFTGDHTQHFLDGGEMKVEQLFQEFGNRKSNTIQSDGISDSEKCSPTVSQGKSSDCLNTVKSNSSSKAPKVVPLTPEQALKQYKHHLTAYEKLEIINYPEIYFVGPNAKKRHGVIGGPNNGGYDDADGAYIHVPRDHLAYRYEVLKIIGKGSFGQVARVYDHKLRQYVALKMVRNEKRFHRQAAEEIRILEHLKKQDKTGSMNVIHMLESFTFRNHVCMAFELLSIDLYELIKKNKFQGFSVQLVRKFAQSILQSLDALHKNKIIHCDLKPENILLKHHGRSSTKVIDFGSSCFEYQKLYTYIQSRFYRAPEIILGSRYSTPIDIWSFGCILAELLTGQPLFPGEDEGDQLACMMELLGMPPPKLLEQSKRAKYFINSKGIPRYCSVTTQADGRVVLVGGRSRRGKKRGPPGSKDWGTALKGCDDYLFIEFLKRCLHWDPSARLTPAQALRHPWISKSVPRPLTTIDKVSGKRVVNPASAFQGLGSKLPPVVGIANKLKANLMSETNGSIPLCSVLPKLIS

[7] = target: T3, Dual specificity tyrosine-phosphorylation-regulated kinase 4 (Homo sapiens, UniProt Q9NR20)
T3 sequence (Q9NR20 whole entry): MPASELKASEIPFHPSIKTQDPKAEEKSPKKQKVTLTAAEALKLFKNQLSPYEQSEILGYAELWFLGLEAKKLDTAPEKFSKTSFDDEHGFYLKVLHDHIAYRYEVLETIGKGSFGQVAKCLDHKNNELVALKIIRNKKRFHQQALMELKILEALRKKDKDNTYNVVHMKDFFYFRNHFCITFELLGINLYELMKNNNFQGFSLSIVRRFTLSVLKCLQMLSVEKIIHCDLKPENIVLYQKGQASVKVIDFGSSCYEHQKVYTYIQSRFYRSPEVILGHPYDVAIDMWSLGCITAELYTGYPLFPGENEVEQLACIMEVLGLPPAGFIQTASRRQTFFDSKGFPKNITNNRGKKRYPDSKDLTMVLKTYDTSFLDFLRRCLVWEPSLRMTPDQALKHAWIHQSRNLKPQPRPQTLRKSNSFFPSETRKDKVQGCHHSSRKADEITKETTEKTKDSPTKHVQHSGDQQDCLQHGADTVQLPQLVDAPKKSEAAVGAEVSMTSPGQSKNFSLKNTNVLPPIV

[8] = target: Glycogen synthase kinase-3 beta (Homo sapiens, UniProt P49841); type: cell-based, Sf9
Glycogen synthase kinase-3 beta, sequence (P49841 whole entry): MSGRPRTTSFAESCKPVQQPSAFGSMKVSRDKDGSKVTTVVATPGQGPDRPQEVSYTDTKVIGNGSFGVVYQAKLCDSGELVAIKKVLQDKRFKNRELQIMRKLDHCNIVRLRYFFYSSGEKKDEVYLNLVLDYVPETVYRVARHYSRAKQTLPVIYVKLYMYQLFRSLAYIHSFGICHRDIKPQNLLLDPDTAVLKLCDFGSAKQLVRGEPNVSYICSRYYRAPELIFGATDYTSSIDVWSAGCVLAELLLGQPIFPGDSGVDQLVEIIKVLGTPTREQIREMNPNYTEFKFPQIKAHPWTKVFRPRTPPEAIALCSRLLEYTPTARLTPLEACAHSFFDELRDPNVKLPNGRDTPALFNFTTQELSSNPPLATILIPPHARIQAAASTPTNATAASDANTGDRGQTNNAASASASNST

Dual specificity protein kinase CLK3, sequence (P49761 whole entry): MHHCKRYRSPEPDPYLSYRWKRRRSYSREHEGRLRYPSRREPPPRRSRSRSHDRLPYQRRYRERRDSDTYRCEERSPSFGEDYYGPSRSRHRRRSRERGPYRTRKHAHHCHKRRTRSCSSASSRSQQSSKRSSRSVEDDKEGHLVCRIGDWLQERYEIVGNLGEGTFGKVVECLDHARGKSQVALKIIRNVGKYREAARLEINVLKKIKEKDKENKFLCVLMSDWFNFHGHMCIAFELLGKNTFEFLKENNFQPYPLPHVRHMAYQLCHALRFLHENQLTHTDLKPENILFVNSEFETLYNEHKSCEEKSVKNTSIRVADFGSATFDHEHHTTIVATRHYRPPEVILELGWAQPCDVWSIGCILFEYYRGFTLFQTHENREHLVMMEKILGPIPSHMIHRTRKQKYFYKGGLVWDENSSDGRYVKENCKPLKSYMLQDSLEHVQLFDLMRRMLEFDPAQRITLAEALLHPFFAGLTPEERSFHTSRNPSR
Casein kinase I isoform epsilon, sequence (P49674 whole entry, canonical isoform): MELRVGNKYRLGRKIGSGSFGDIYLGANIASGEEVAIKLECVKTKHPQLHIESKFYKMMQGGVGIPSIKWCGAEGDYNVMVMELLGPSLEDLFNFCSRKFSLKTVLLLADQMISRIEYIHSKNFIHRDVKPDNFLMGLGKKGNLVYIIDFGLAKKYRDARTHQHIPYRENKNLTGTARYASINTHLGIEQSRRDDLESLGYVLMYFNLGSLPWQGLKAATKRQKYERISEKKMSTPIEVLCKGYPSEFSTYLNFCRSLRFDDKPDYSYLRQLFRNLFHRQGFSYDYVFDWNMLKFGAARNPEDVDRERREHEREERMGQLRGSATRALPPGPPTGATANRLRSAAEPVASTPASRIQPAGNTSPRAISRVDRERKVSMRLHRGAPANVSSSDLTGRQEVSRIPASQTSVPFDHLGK
Dual specificity protein kinase CLK2, sequence (P49760 whole entry): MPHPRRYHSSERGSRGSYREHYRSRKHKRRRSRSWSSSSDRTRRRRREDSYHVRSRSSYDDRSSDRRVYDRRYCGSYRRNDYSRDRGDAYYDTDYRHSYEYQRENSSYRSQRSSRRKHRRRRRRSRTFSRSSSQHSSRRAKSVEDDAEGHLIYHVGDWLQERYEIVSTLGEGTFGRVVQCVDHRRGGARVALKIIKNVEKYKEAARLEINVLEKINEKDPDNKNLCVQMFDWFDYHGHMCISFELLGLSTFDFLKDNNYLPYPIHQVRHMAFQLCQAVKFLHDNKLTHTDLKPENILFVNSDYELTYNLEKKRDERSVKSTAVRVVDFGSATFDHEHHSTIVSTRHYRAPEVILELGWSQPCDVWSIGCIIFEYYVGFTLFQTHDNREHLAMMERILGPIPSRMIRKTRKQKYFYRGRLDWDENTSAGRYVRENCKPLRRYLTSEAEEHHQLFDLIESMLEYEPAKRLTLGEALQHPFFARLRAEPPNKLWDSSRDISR
Cyclin-dependent kinase 5/CDK5 activator 1, sequence (Q00535 whole entry): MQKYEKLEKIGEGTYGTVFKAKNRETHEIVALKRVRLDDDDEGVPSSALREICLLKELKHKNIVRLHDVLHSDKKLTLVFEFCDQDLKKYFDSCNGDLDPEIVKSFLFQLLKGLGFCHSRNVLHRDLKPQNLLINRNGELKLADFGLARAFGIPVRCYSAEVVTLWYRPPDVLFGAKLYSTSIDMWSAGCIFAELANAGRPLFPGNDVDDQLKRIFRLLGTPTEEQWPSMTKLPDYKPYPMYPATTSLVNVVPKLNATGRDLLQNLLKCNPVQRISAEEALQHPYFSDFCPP
Cyclin-dependent kinase 5/CDK5 activator 1, sequence (Q15078 whole entry, further chain): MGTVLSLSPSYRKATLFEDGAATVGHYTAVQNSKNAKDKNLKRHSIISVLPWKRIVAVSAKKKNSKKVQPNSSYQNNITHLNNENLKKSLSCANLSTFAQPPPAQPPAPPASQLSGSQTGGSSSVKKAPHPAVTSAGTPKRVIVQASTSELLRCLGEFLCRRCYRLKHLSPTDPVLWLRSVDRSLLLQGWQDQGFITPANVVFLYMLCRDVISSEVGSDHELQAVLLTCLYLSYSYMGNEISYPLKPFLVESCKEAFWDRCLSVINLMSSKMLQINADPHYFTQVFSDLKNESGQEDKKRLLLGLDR

Row | Structure (SMILES) | IC50 [1] | IC50 [2] | IC50 [3] | IC50 [4] | IC50 [5] | IC50 [6] | IC50 [7] | IC50 [8]
1 | CC1(NC2=N/C(=C\c3ccc4ncsc4c3)C(=O)N2)CCNC1=O (racemic) | > 10000 nM | > 10000 nM | 56 nM | 532 nM | 189 nM | 592 nM | 591 nM | 6280 nM
2 | O=C1NC(Nc2ccccn2)=N/C1=C\c1ccc2ncsc2c1 | > 10000 nM | > 10000 nM | 117 nM | 211 nM | 256 nM | 350 nM |  | 1660 nM
3 | O=C1NC(Nc2cccc(OC(F)F)c2)=N/C1=C\c1ccc2ncsc2c1 |  | > 10000 nM | 134 nM | 710 nM | 760 nM | 706 nM | 2730 nM | 3680 nM
4 | O=C1NC(NC(CF)c2ccccc2)=N/C1=C\c1ccc2ncsc2c1 (racemic) | > 10000 nM | > 10000 nM | 13 nM | 293 nM | 530 nM | 477 nM | 459 nM | 947 nM
5 | O=C1NC(NCC(O)Cc2ccccc2)=N/C1=C\c1ccc2ncsc2c1 (racemic) | > 10000 nM | > 10000 nM | 89 nM | 472 nM | 527 nM | 1170 nM | 288 nM | 4810 nM
6 | O=C1NC(N[C@H]2C3CC4CC2C[C@](O)(C4)C3)=N/C1=C\c1ccc2ncsc2c1 | 9800 nM | 2300 nM | 11 nM | 626 nM | 296 nM | 122 nM | 321 nM | 5370 nM
7 | O=C1NC(NCc2ccccc2C(F)(F)F)=N/C1=C\c1ccc2ncsc2c1 | > 10000 nM | > 10000 nM | 15 nM | 135 nM |  | 434 nM | 2550 nM | 6920 nM
8 | CN1CCN(c2cnc(NC3=N/C(=C\c4ccc5ncsc5c4)C(=O)N3)nc2)CC1 | > 10000 nM | > 10000 nM | 997 nM | 5100 nM | 7480 nM | 450 nM | > 10000 nM | > 10000 nM
9 | Cc1csc(CNC2=N/C(=C\c3ccc4ncsc4c3)C(=O)N2)n1 | > 10000 nM | > 10000 nM | 33 nM | 376 nM |  | 1800 nM | 954 nM | 2150 nM
10 | CC(C)(C)OC(=O)N1CCC(CNC2=N/C(=C\c3ccc4ncsc4c3)C(=O)N2)CC1 | > 10000 nM | > 10000 nM | 2200 nM | 8620 nM |  | > 10000 nM | > 10000 nM | 5270 nM
11 | C[C@@H]1[C@H]2C[C@@H](C[C@H]1NC1=N/C(=C\c3ccc4ncsc4c3)C(=O)N1)C2(C)C | > 10000 nM | > 10000 nM |  | 795 nM |  | 1010 nM | 719 nM | > 10000 nM
12 | Cc1ccc(CNC2=N/C(=C\c3ccc4ncsc4c3)C(=O)N2)c(C)c1 | > 10000 nM | > 10000 nM |  | 518 nM |  | 4200 nM | 9220 nM | > 10000 nM

Further lines, results first:

Row | IC50 [1] | IC50 [2] | IC50 [3] | IC50 [4] | IC50 [5] | IC50 [6] | IC50 [7] | IC50 [8] | Structure (SMILES)
13 | > 10000 nM | 2490 nM | 37 nM | 107 nM | 124 nM | 335 nM | 246 nM | 7220 nM | O=C1NC(NC2CCCSC2)=N/C1=C\c1ccc2ncsc2c1 (racemic)
14 | 6930 nM | > 10000 nM | 46 nM | 299 nM | 1090 nM | 357 nM | 319 nM | 3080 nM | O=C1NC(NCC(O)C2CCCCC2)=N/C1=C\c1ccc2ncsc2c1 (racemic)
15 | > 10000 nM | > 10000 nM |  | 720 nM | 1910 nM | 1250 nM | 1670 nM | 2410 nM | O=C1NC(N[C@@H](CO)CC2CCC2)=N/C1=C\c1ccc2ncsc2c1
16 |  | > 10000 nM |  | 309 nM | 258 nM | 706 nM | 1250 nM | 4370 nM | O=C1NC(N[C@@H]2CCCC[C@@H](O)C2)=N/C1=C\c1ccc2ncsc2c1 (racemic)
17 | > 10000 nM | > 10000 nM |  | 341 nM | 355 nM | 343 nM | 938 nM | 854 nM | O=C1NC(NC2CC23CCCCC3)=N/C1=C\c1ccc2ncsc2c1 (configuration not stated)
18 | > 10000 nM | 5900 nM | 162 nM | 119 nM | 109 nM | 611 nM | 570 nM | > 10000 nM | O=C1NC(N[C@H]2CCCOC2)=N/C1=C\c1ccc2ncsc2c1
19 | > 10000 nM | > 10000 nM | 28 nM | 127 nM |  | 119 nM | 143 nM | 5560 nM | O=C1NC(NC2CCCCC2(F)F)=N/C1=C\c1ccc2ncsc2c1 (racemic)
20 |  | > 10000 nM |  | 646 nM | 174 nM | 753 nM | 698 nM | 6040 nM | O=C1NC(N[C@@H]2CCCC[C@H](O)C2)=N/C1=C\c1ccc2ncsc2c1 (racemic)
21 | > 10000 nM | > 10000 nM | 102 nM | 357 nM | 260 nM | 692 nM | 574 nM | 4750 nM | CC1(C)CCC(NC2=N/C(=C\c3ccc4ncsc4c3)C(=O)N2)CO1 (racemic)
22 | > 10000 nM | 3890 nM | 51 nM | 428 nM | 704 nM | 495 nM | 383 nM | 2770 nM | O=C1NC(NC2CCCCOC2)=N/C1=C\c1ccc2ncsc2c1 (racemic)
23 | > 10000 nM | > 10000 nM | 127 nM | 143 nM | 240 nM | 337 nM | 260 nM | 3260 nM | O=C1NC(NC2CC3CCC2C3)=N/C1=C\c1ccc2ncsc2c1 (racemic)
24 | > 10000 nM | > 10000 nM | 80 nM | 1090 nM | 1380 nM | 695 nM | 410 nM | 4160 nM | O=C1NC(NC(CO)C2CCCCC2)=N/C1=C\c1ccc2ncsc2c1 (racemic)
25 |  | > 10000 nM | 100 nM | 628 nM | 777 nM | 1200 nM | 439 nM | 8750 nM | CO[C@H]1CCCC[C@@H]1NC1=N/C(=C\c2ccc3ncsc3c2)C(=O)N1
26 |  | > 10000 nM | 648 nM | 1130 nM | 1570 nM | 1060 nM | 731 nM | 9540 nM | CO[C@H]1CCCC[C@H]1NC1=N/C(=C\c2ccc3ncsc3c2)C(=O)N1 (racemic)
27 |  | > 10000 nM | 310 nM | 382 nM | 342 nM | 1360 nM | 551 nM | > 10000 nM | CO[C@@H]1CCCC[C@H]1NC1=N/C(=C\c2ccc3ncsc3c2)C(=O)N1
